Read-outs that look alike come from different tables or passages of the source.
How the values were obtained:
[1] = system: SCPJU; experiment: Post-emergence herbicidal action, submerged application; type: in vivo, Scirpus juncoides; conditions: for pest or weed control at 15 g/ha: dosage 15 g ai/ha
Method: (§1) The herbicidal efficacy of the active ingredients or active ingredient mixtures was scored visually by comparing the treated variants with untreated control variants. The damage and development of all aerial plant parts was recorded. Scoring was done on a percentage scale (100% action=all plants dead; 50% action=50% of the plants and green plant parts dead; 0% action=no discernible action=like untreated control plot).
(§2) Seeds or root segments of monocotyledonous and dicotyledonous weeds are placed in sandy loam in pots, covered with soil and grown in the greenhouse under good growth conditions (temperature, atmospheric humidity, water supply). Approximately three weeks after planting, the experimental plants are treated with the compositions according to the invention. In the case of spray application, the compositions according to the invention, which are formulated as wettable powders or emulsion concentrates, are sprayed onto the green plant parts in various dosages with an application rate of 600 to 800 l of water per ha (converted). Immediately to a few days after the application, the test containers are flooded with water up to a depth of 30 mm above the soil surface. In the case of submerged application, in contrast, the soil in the closed test container is already covered with paddy water up to a depth of 30 mm at the time of application. Here, the formulated active ingredients are added directly to the paddy water. After the experimental plants have remained in the greenhouse under optimal growth conditions for a further 3 to 4 weeks, the effect of the preparations is scored visually in comparison with untreated controls. The compositions according to the invention also have an outstanding herbicidal action against a broad spectrum of economically important grass weeds and broad-leaved weeds when applied post-emergence. Frequently, effects of the combinations according to the invention are observed which exceed the formal total of the effects when the herbicides are applied individually. When using suitable low dosages, the values observed in the experiments show an effect of the combinations which exceed the expected values calculated using Colby's formula.
(§3) When applying the combinations according to the invention, herbicidal effects are frequently observed on a harmful plant species which exceed the formal total of the effects of the herbicides present when these are applied by themselves. Alternatively, it is observed in some cases that a lower application rate is required for the herbicide combination in order to achieve the same effect on a harmful plant species in comparison with the individual products.
(§4) A, B=action of component A or B in percent at a dosage of a and b grams of ai/ha, respectively, and
(§5) E=expected value in % at a dosage of a+b grams of ai/ha.
(§6) Examples B.I to B.XVII have been conducted according to method B.2 (post-emergence herbicidal action) as mentioned above, wherein spray application has been applied in case of examples B.I to B.V. Submerged application has been applied in case of examples B.VI bis B.XVII.

[2] = system: SAGPY; experiment: as above; type: in vivo, Sagittaria pygmaea
Method: as §1, §2, §3, §4, §5, §6

[3] = system: ECHCG; experiment: Post-emergence herbicidal action, spray application; type: in vivo, Echinochloa crus galli
Method: as §1, §2, §3
A, B=action of component A or B in percent at a dosage of a and b grams of ai/ha, respectively, and […]

[4] = system: SEBEX; experiment: as above; type: in vivo, Sesbania exaltata
Method: as §1
as §2, with “Frequently, effects of the combinations according to the invention are observed which exceed the formal total of the effects when the herbicides are applied individually.” left out, “formula. […]” for “formula.”

[5] = system: CYPSE; experiment: Post-emergence herbicidal action, submerged application; type: in vivo, Cyperus serotinus; conditions: Example B.X, dosage 750 g ai/ha
Method: as §1
(§7) Seeds or root segments of monocotyledonous and dicotyledonous weeds are placed in sandy loam in pots, covered with soil and grown in the greenhouse under good growth conditions (temperature, atmospheric humidity, water supply). Approximately three weeks after planting, the experimental plants are treated with the compositions according to the invention. […] After the experimental plants have remained in the greenhouse under optimal growth conditions for a further 3 to 4 weeks, the effect of the preparations is scored visually in comparison with untreated controls. […] When using suitable low dosages, the values observed in the experiments show an effect of the combinations which exceed the expected values calculated using Colby's formula. […]

[6] = system: CHEAL; experiment: Post-emergence herbicidal action, spray application; type: in vivo, Chenopodium album; conditions: Example B.I, dosage 10 g ai/ha
Method: as §1, §7

[7] = system: ECHOR; experiment: Post-emergence herbicidal action, submerged application; type: in vivo; conditions: Example B.XIV, dosage 18.75 g ai/ha
Method: as §1, §7

[8] = system: CYPES; experiment: Post-emergence herbicidal action, spray application; type: in vivo; conditions: Example B.IV, dosage 20 g ai/ha
Method: as §1, §7

[9] = Example B.II, dosage 100 g ai/ha
[10] = Example B.VI, submerged application, dosage 75 g ai/ha
[11] = Schoenoplectiella juncoides, read-out: SCPJU found
[12] = Sagittaria pygmaea, read-out: SAGPY found
[13] = Example B.III, dosage 100 g ai/ha
[14] = Example B.V, dosage 500 g ai/ha

`Cc1ccccc1CO[C@@H]1C[C@@]2(C(C)C)CC[C@]1(C)O2` (racemic) [Compound B7.1, cinmethylin] gave a pest or weed control at 15 g/ha ([1]; Schoenoplectiella juncoides, Example B.IX, submerged application, read-out: SCPJU found) of 0% and a pest or weed control at 30 g/ha ([2]; Sagittaria pygmaea, Example B.IX, submerged application, dosage 30 g ai/ha, read-out: SAGPY found) of 0%.
With `O=C(O)COc1ccc(Cl)cc1Cl` [Compound B1.1, 2,4-D] the ECHCG found [3, 9] was 50% and the SEBEX found [4, 9] was 45%.
`CS(=O)(=O)c1ccc(C(=O)C2=C(Sc3ccccc3)C3CCC(C3)C2=O)c(Cl)c1` (stereo not drawn) [Compound B2.1, benzobicyclon] showed an SCPJU found [1, 10] of 30% and an SAGPY found [2, 10] of 0%.
In the case of `Cc1ccc(C(=O)COc2c(C(=O)c3ccc(Cl)c(C)c3Cl)c(C)nn2C)cc1` [Compound B3.1, benzofenap], the pest or weed control at 300 g/ha ([1]; Schoenoplectiella juncoides, Example B.VII, submerged application, dosage 300 g ai/ha, read-out: SCPJU found) is reported as 0% and the pest or weed control at 75 g/ha ([2]; Sagittaria pygmaea, Example B.VII, submerged application, dosage 75 g ai/ha, read-out: SAGPY found) is reported as 0%.
`CC(C)Oc1cc(-n2nc(C(C)(C)C)oc2=O)c(Cl)cc1Cl` [Compound B4.2, oxadiazon] was tested, and the pest or weed control at 22 g/ha ([1]; Schoenoplectiella juncoides, Example B.XV, submerged application, dosage 22 g ai/ha, read-out: SCPJU found) was 10% and the pest or weed control at 175 g/ha ([2]; Sagittaria pygmaea, Example B.XV, submerged application, dosage 175 g ai/ha, read-out: SAGPY found) was 0%.
`CCN(CC)C(=O)n1cnc(S(=O)(=O)c2c(C)cc(C)cc2C)n1` [Compound B5.1, cafenstrole] gave a pest or weed control at 75 g/ha [1, 11] of 0% and a pest or weed control at 150 g/ha [2, 12] of 0%.
Compound `Cc1ccc(NC(=O)NC(C)(C)c2ccccc2)cc1` [Compound B5.2, daimuron] has a pest or weed control at 375 g/ha ([2]; Sagittaria pygmaea, Example B.X, submerged application, dosage 375 g ai/ha, read-out: SAGPY found) of 0% and a CYPSE found [5] of 0%.
`CSC(=O)c1c(C(F)F)nc(C(F)(F)F)c(C(=O)SC)c1CC(C)C` [Compound B5.3, dithiopyr] gave a pest or weed control at 15 g/ha ([1]; Schoenoplectiella juncoides, Example B.XI, submerged application, read-out: SCPJU found) of 0% and a pest or weed control at 15 g/ha ([2]; Sagittaria pygmaea, Example B.XI, submerged application, dosage 15 g ai/ha, read-out: SAGPY found) of 0%.
Work on `CCN(C(=O)n1nnn(-c2ccccc2Cl)c1=O)C1CCCCC1` [Compound B5.4, fentrazamide] yielded a pest or weed control at 75 g/ha ([1]; Schoenoplectiella juncoides, Example B.XIII, submerged application, dosage 75 g ai/ha, read-out: SCPJU found) of 0% and a pest or weed control at 37.5 g/ha ([2]; Sagittaria pygmaea, Example B.XIII, submerged application, dosage 37.5 g ai/ha, read-out: SAGPY found) of 0%.
`CCOC(=O)c1cnn(C)c1S(=O)(=O)NC(=O)Nc1nc(OC)cc(OC)n1` [Compound B6.2, pyrazosulfuron-ethyl] was tested, and the CHEAL found [6] was 10%.
`CO/N=C(/C)c1cccc(Oc2nc(OC)cc(OC)n2)c1C(=O)OC` [Compound B6.3, pyriminobac-methyl] gave a pest or weed control at 7.5 g/ha [1, 11] of 0% and a pest or weed control at 7.5 g/ha [2, 12] of 0%.
Work on `CCNc1nc(NC(C)C(C)C)nc(SC)n1` (stereo not drawn) [Compound B8.1, dimethametryn] yielded an ECHCG found [3, 13] of 25% and an SEBEX found [4, 13] of 50%.
With `CCOCOc1ccc(C(=O)Nc2cccc(Cl)c2Cl)cc1` [Compound B9.1, etobenzamide] the SCPJU found ([1]; Example B.XII, submerged application, dosage 375 g ai/ha) was 0% and the SAGPY found ([2]; Example B.XII, submerged application, dosage 187 g ai/ha) was 0%.
`CCC1(CC2(c3cccc(Cl)c3)CO2)C(=O)c2ccccc2C1=O` (stereo not drawn) [Compound B10.1, indanofan] was tested, and the pest or weed control at 37.5 g/ha ([1]; Schoenoplectiella juncoides, Example B.XIV, submerged application, dosage 37.5 g ai/ha, read-out: SCPJU found) was 20% and the ECHOR found [7] was 50%.
With `COc1cc(OC)nc(Sc2cccc3c2C(=O)OC3C)n1` (stereo not drawn) [Compound B12.1, pyriftalide] the pest or weed control at 100 g/ha ([1]; Schoenoplectiella juncoides, Example B.XVI, submerged application, dosage 100 g ai/ha, read-out: SCPJU found) was 0% and the pest or weed control at 50 g/ha ([2]; Sagittaria pygmaea, Example B.XVI, submerged application, dosage 50 g ai/ha, read-out: SAGPY found) was 0%.
`CCCC(=NOCC(C)Oc1ccc(Cl)cc1)C1=C(O)CC(C2CCCSC2)CC1=O` (stereo not drawn) [Compound B13.1, profoxydim] gave an ECHCG found ([3]; Example B.IV, dosage 20 g ai/ha) of 30% and a CYPES found [8] of 0%.
`NC1=C(Cl)C(=O)c2ccccc2C1=O` [Compound B14.1, quinoclamine] showed an ECHCG found [3, 14] of 0% and an SEBEX found [4, 14] of 0%.
